Experimental data reported in patent publication US20230278972A1, “SUBSTITUTED HALOALKYL SULFONANILIDE HERBICIDES” (FMC Corporation, priority 2020, published 2023).

Columns and labels:
Assay type in all cases: in vivo
[1] = tested on: blackgrass (Alopecurus myosuroides); assay: Test A postemergence, blackgrass; conditions: Postemergence, 0 to 100 scale (0 no effect, 100 complete control); for Blackgrass plant response rating: visual injury vs untreated controls after approx. 10 days
In short: (§1)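 Whole-plant herbicidal screen in pots of loam blended with sand. Sprays used a surfactant-containing, non-phytotoxic solvent vehicle. Timing was preemergence soil-directed at planting or postemergence at the one- to two-leaf stage (2–10 cm).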

[2] = tested on: Ryegrass, Italian (Italian ryegrass, Lolium multiflorum); assay: Test A preemergence, Ryegrass, Italian; conditions: Preemergence; for Ryegrass, Italian plant response rating: 125 g ai/ha, visual injury on 0 to 100 scale (0 no effect, 100 complete control), approximately 10 days; for Plant response rating, Ryegrass, Italian: 500 g ai/ha, 0 to 100 scale (0 no effect, 100 complete control)
In short: as §1

[3] = tested on: pigweed (Amaranthus retroflexus); assay: Test A preemergence, pigweed; conditions: for Pigweed plant response rating: 125 g ai/ha, visual injury on 0 to 100 scale (0 no effect, 100 complete control), approximately 10 days; for Plant response rating, Pigweed: 500 g ai/ha, 0 to 100 scale (0 no effect, 100 complete control)
In short: (§2)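 Compounds in non-phytotoxic solvent with surfactant. Soil: loam/sand. Preemergence via directed soil spray after seeding; postemergence on seedlings 2–10 cm, one- to two-leaf.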

[4] = tested on: barnyardgrass (Echinochloa crus-galli); assay: Test A postemergence, barnyardgrass; conditions: Postemergence, 0 to 100 scale (0 no effect, 100 complete control); for Barnyardgrass plant response rating: visual injury vs untreated controls after approx. 10 days
In short: as §2

[5] = tested on: galium (catchweed bedstraw, Galium aparine); assay: Test A postemergence, galium; conditions: Postemergence, 0 to 100 scale (0 no effect, 100 complete control); for Galium plant response rating: visual injury vs untreated controls after approx. 10 days
In short: as §2

[6] = tested on: Ryegrass, Italian (Italian ryegrass, Lolium multiflorum); assay: Test A postemergence, Ryegrass, Italian; conditions: Postemergence, 0 to 100 scale (0 no effect, 100 complete control); for Ryegrass, Italian plant response rating: visual injury vs untreated controls after approx. 10 days
In short: as §1

[7] = tested on: ragweed (common ragweed, Ambrosia artemisiifolia); assay: Test A postemergence, ragweed; conditions: Postemergence, 0 to 100 scale (0 no effect, 100 complete control); for Ragweed plant response rating: visual injury vs untreated controls after approx. 10 days
In short: as §1

[8] = tested on: wheat (Triticum aestivum); assay: Test A postemergence, wheat; conditions: Postemergence, 0 to 100 scale (0 no effect, 100 complete control); for Wheat plant response rating: visual injury vs untreated controls after approx. 10 days
In short: as §2

[9] = tested on: Foxtail, Giant (giant foxtail, Setaria faberi); assay: Test A postemergence, Foxtail, Giant; conditions: Postemergence, 0 to 100 scale (0 no effect, 100 complete control); for Foxtail, Giant plant response rating: visual injury vs untreated controls after approx. 10 days
In short: as §1

[10] = tested on: ragweed (common ragweed, Ambrosia artemisiifolia); assay: Test A preemergence, ragweed; conditions: Preemergence; for Ragweed plant response rating: 125 g ai/ha, visual injury on 0 to 100 scale (0 no effect, 100 complete control), approximately 10 days; for Plant response rating, Ragweed: 500 g ai/ha, 0 to 100 scale (0 no effect, 100 complete control)
In short: as §1

[11] = tested on: pigweed (Amaranthus retroflexus); assay: Test A postemergence, pigweed; conditions: Postemergence, 0 to 100 scale (0 no effect, 100 complete control); for Pigweed plant response rating: visual injury vs untreated controls after approx. 10 days
In short: as §1

kochia (Bassia scoparia) [12] = assay: Test A preemergence, kochia; conditions: Preemergence; for Kochia plant response rating: 125 g ai/ha, visual injury on 0 to 100 scale (0 no effect, 100 complete control), approximately 10 days; for Plant response rating, Kochia: 500 g ai/ha, 0 to 100 scale (0 no effect, 100 complete control)
In short: as §1

corn (Zea mays) = assay: Test A postemergence, corn; conditions: Postemergence, 0 to 100 scale (0 no effect, 100 complete control); for Corn plant response rating: visual injury vs untreated controls after approx. 10 days
In short: as §1

kochia (Bassia scoparia) [13] = assay: Test A postemergence, kochia; conditions: Postemergence, 0 to 100 scale (0 no effect, 100 complete control); for Kochia plant response rating: visual injury vs untreated controls after approx. 10 days
In short: as §1

[14] = tested on: barnyardgrass (Echinochloa crus-galli); assay: Test A preemergence, barnyardgrass; conditions: Preemergence; for Barnyardgrass plant response rating: 125 g ai/ha, visual injury on 0 to 100 scale (0 no effect, 100 complete control), approximately 10 days; for Plant response rating, Barnyardgrass: 500 g ai/ha, 0 to 100 scale (0 no effect, 100 complete control)
In short: as §1

[15] = tested on: Foxtail, Giant (giant foxtail, Setaria faberi); assay: Test A preemergence, Foxtail, Giant; conditions: Preemergence; for Foxtail, Giant plant response rating: 125 g ai/ha, visual injury on 0 to 100 scale (0 no effect, 100 complete control), approximately 10 days; for Plant response rating, Foxtail, Giant: 500 g ai/ha, 0 to 100 scale (0 no effect, 100 complete control)
In short: as §1

[16] = 125 g ai/ha, visual injury approx. 10 days
[17] = 500 g ai/ha, visual injury, approx. 10 days

Structure (SMILES)	Plant response rating, Blackgrass [1, 16]	Ryegrass, Italian plant response rating [2]	Plant response rating, Ryegrass, Italian [2]	Pigweed plant response rating [3]	Plant response rating, Pigweed [3]	Plant response rating, Barnyardgrass [4, 16]	Plant response rating, Galium [5, 16]	Plant response rating, Ryegrass, Italian [6, 16]	Plant response rating, Ragweed [7, 16]	Plant response rating, Wheat [8, 16]	Plant response rating, Foxtail, Giant [9, 16]	Ragweed plant response rating [10]	Plant response rating, Ragweed [10]	Plant response rating, Pigweed [11, 16]	Kochia plant response rating (kochia (Bassia scoparia) [12])	Plant response rating, Kochia (kochia (Bassia scoparia) [12])	Plant response rating, Corn (corn (Zea mays); [16])	Plant response rating, Kochia (kochia (Bassia scoparia) [13]; [16])	Barnyardgrass plant response rating [14]	Plant response rating, Barnyardgrass [14]	other results
CCn1cc(-c2cc(N(S(=O)(=O)C(F)(F)F)S(=O)(=O)C(F)(F)F)c(C)cc2C)c(=O)n(CC)c1=O [Compound 43]	70	100	100	20	60	90	70	20	60	70	90	0	0	80	0	90	10	20	90	100	Plant response rating, Blackgrass [1, 17]: 90; Plant response rating, Barnyardgrass [4, 17]: 90; Plant response rating, Galium [5, 17]: 90; Plant response rating, Ryegrass, Italian [6, 17]: 50; Plant response rating, Ragweed [7, 17]: 60; Plant response rating, Wheat [8, 17]: 70; Plant response rating, Foxtail, Giant [9, 17]: 90; Plant response rating, Pigweed [11, 17]: 80; Plant response rating, Corn (corn (Zea mays); [17]): 80; Plant response rating, Kochia (kochia (Bassia scoparia) [13]; [17]): 40; Foxtail, Giant plant response rating [15]: 100; Plant response rating, Foxtail, Giant [15]: 100
CCn1cc(-c2cc(NS(=O)(=O)C(F)(F)F)c(C)cc2C)c(=O)n(CC)c1=O [Compound 44]	80	100	100	40	100	90	80	30	20	70	90	0	10	80	0	60	0	10	100	100	Blackgrass plant response rating ([1]; 500 g ai/ha): 90; Barnyardgrass plant response rating ([4]; 500 g ai/ha): 90; Galium plant response rating ([5]; 500 g ai/ha): 90; Ryegrass, Italian plant response rating ([6]; 500 g ai/ha): 30; Ragweed plant response rating ([7]; 500 g ai/ha): 50; Wheat plant response rating ([8]; 500 g ai/ha): 70; Foxtail, Giant plant response rating ([9]; 500 g ai/ha): 90; Pigweed plant response rating ([11]; 500 g ai/ha): 90; Corn plant response rating (corn (Zea mays); 500 g ai/ha): 70; Kochia plant response rating (kochia (Bassia scoparia) [13]; 500 g ai/ha): 30; Foxtail, Giant plant response rating [15]: 100; Plant response rating, Foxtail, Giant [15]: 100
CCn1nc(Cl)cc(-c2cc(N(S(C)(=O)=O)S(=O)(=O)C(F)(F)F)c(C)cc2C)c1=O [Compound 45]	0	80	100	60	90	20	10	50	20	40	0	60	80	30	70	100	10	10	90	100	Blackgrass plant response rating ([1]; 500 g ai/ha): 60; Barnyardgrass plant response rating ([4]; 500 g ai/ha): 70; Galium plant response rating ([5]; 500 g ai/ha): 40; Ryegrass, Italian plant response rating ([6]; 500 g ai/ha): 90; Ragweed plant response rating ([7]; 500 g ai/ha): 70; Wheat plant response rating ([8]; 500 g ai/ha): 70; Foxtail, Giant plant response rating ([9]; 500 g ai/ha): 60; Pigweed plant response rating ([11]; 500 g ai/ha): 70; Corn plant response rating (corn (Zea mays); 500 g ai/ha): 30; Kochia plant response rating (kochia (Bassia scoparia) [13]; 500 g ai/ha): 50; Foxtail, Giant plant response rating [15]: 100; Plant response rating, Foxtail, Giant [15]: 100
Cc1cc(C)c(N(S(C)(=O)=O)S(=O)(=O)C(F)(F)F)cc1-c1cc(Cl)nn(C)c1=O [Compound 46]	0	50	80	0	50	0	0	0	0	0	0	0	0	0	0	0	0	0	0	70	Blackgrass plant response rating ([1]; 500 g ai/ha): 0; Barnyardgrass plant response rating ([4]; 500 g ai/ha): 0; Galium plant response rating ([5]; 500 g ai/ha): 0; Ryegrass, Italian plant response rating ([6]; 500 g ai/ha): 0; Ragweed plant response rating ([7]; 500 g ai/ha): 0; Wheat plant response rating ([8]; 500 g ai/ha): 50; Foxtail, Giant plant response rating ([9]; 500 g ai/ha): 0; Pigweed plant response rating ([11]; 500 g ai/ha): 0; Corn plant response rating (corn (Zea mays); 500 g ai/ha): 0; Kochia plant response rating (kochia (Bassia scoparia) [13]; 500 g ai/ha): 0; Foxtail, Giant plant response rating [15]: 90; Plant response rating, Foxtail, Giant [15]: 90
Cc1cc(C)c(N(S(=O)(=O)C(F)(F)F)S(=O)(=O)C(F)(F)F)cc1-c1cc(C(C)C)nn(C)c1=O [Compound 47]	10	50	100	0	0	50	30	40	70	50	40	20	60	0	0	0	10	0	50	90	Blackgrass plant response rating ([1]; 500 g ai/ha): 50; Barnyardgrass plant response rating ([4]; 500 g ai/ha): 80; Galium plant response rating ([5]; 500 g ai/ha): 40; Ryegrass, Italian plant response rating ([6]; 500 g ai/ha): 80; Ragweed plant response rating ([7]; 500 g ai/ha): 80; Wheat plant response rating ([8]; 500 g ai/ha): 60; Foxtail, Giant plant response rating ([9]; 500 g ai/ha): 80; Pigweed plant response rating ([11]; 500 g ai/ha): 0; Corn plant response rating (corn (Zea mays); 500 g ai/ha): 0; Kochia plant response rating (kochia (Bassia scoparia) [13]; 500 g ai/ha): 0; Foxtail, Giant plant response rating [15]: 10; Plant response rating, Foxtail, Giant [15]: 90
